The record followed here is PubChem BioAssay AID248 (DTP/NCI, 2004).

This assay relates to L1210 leukemia ip in BDF1 mice, survival T/C. As to the kind of experiment: NCI In Vivo Anticancer Drug Screen. Data for tumor model L1210 Leukemia (intraperitoneal) in B6D2F1 (BDF1) mice. Conditions: endpoint: mean survival time, higher = longer survival. The essentials:
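Transplanted-tumor mice were given test agent; controls received vehicle only. Survival readings from the two groups were divided (treated over control).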

Where [1] appears, read: dose: 100.0 mg/kg/injection, schedule: Q01DX001 (ip), vehicle: saline.
Setting [2] is: dose: 200.0 mg/kg/injection, schedule: Q01DX001 (ip), vehicle: saline.
The mark [3] stands for this setting: dose: 400.0 mg/kg/injection, schedule: Q01DX001 (ip), vehicle: saline.
[4] abbreviates: dose: 100.0 mg/kg/injection, schedule: Q01DX009 (ip), vehicle: saline with Tween-80.
[5] abbreviates: dose: 200.0 mg/kg/injection, schedule: Q01DX009 (ip), vehicle: saline with Tween-80.
The mark [6] stands for this setting: dose: 75.0 mg/kg/injection, schedule: Q01DX001 (ip), vehicle: carboxymethylcellulose (CMC).
Where [7] appears, read: dose: 150.0 mg/kg/injection, schedule: Q01DX001 (ip), vehicle: carboxymethylcellulose (CMC).
The mark [8] stands for this setting: dose: 200.0 mg/kg/injection, schedule: Q04DX002 (ip), vehicle: Klucel (hydroxypropylcellulose) (HPC).
[9] abbreviates: dose: 400.0 mg/kg/injection, schedule: Q04DX002 (ip), vehicle: Klucel (hydroxypropylcellulose) (HPC).
Where [10] appears, read: dose: 50.0 mg/kg/injection, schedule: Q01DX009 (ip), vehicle: Klucel (hydroxypropylcellulose) (HPC).
[11] abbreviates: dose: 100.0 mg/kg/injection, schedule: Q01DX009 (ip), vehicle: Klucel (hydroxypropylcellulose) (HPC).
[12] abbreviates: dose: 200.0 mg/kg/injection, schedule: Q01DX009 (ip), vehicle: Klucel (hydroxypropylcellulose) (HPC).
The mark [13] stands for this setting: dose: 100.0 mg/kg/injection, schedule: Q04DX003 (ip), vehicle: saline with Tween-80.
[14] abbreviates: dose: 100.0 mg/kg/injection, schedule: Q04DX003 (ip), vehicle: Klucel (hydroxypropylcellulose) (HPC).
Where [15] appears, read: dose: 200.0 mg/kg/injection, schedule: Q04DX003 (ip), vehicle: Klucel (hydroxypropylcellulose) (HPC).
The mark [16] stands for this setting: dose: 25.0 mg/kg/injection, schedule: Q01DX009 (ip), vehicle: Klucel (hydroxypropylcellulose) (HPC).

Inconclusive results and toxic doses are left out.

As for `CCN(CC)CC(=O)CC12CC3CC(CC(C3)C1)C2`, the T/C was 93 % of control (dose: 0.8 mg/kg/injection, schedule: Q04DX002 (ip), vehicle: saline); 97 % of control (dose: 1.6 mg/kg/injection, schedule: Q04DX002 (ip), vehicle: saline); 101 % of control (dose: 3.1 mg/kg/injection, schedule: Q04DX002 (ip), vehicle: saline); 97 % of control (dose: 6.25 mg/kg/injection, schedule: Q04DX002 (ip), vehicle: saline).

With `OCn1c(O)c2ccccc2c1N=Nc1ccccc1`, the T/C was 95 % of control under setting [1], 95 % of control under setting [2] and 95 % of control under setting [3].

`CC1N=C(N)NC(=O)C1c1ccc(Cl)cc1` (stereo unspecified): the T/C runs as follows: under setting [4], 103 % of control; under setting [5], 100 % of control.

On to `CCC(CCc1ccccn1)C(=O)c1ccccc1` (stereo unspecified), for which the T/C under setting [6] was 100 % of control; the T/C under setting [7] was 96 % of control; the T/C (dose: 300.0 mg/kg/injection, schedule: Q01DX001 (ip), vehicle: carboxymethylcellulose (CMC)) is 94 % of control.

For `O=C(O)c1ccccc1S(=O)O`, the T/C is 119 % of control (dose: 50.0 mg/kg/injection, schedule: Q04DX002 (ip), vehicle: other); 122 % of control (dose: 100.0 mg/kg/injection, schedule: Q04DX002 (ip), vehicle: other); 89 % of control under setting [8]; 91 % of control (dose: 200.0 mg/kg/injection, schedule: Q04DX002 (ip), vehicle: other); 103 % of control under setting [9].

Turning to `Cn1c(O)c(O)c(=O)n(C)c1=O`, the T/C runs as follows: under setting [10], 101 % of control; under setting [11], 98 % of control; under setting [12], 88 % of control.

For `O=NN(CCCl)C(=O)NC1CCC(CC2CCC(NC(=O)N(CCCl)N=O)CC2)CC1` (stereo unspecified), the T/C runs as follows: (dose: 6.0 mg/kg/injection, schedule: Q01DX001 (ip), vehicle: gum acacia) 105 % of control; (dose: 12.0 mg/kg/injection, schedule: Q01DX001 (ip), vehicle: gum acacia) 151 % of control; (dose: 46.0 mg/kg/injection, schedule: Q01DX001 (ip), vehicle: gum acacia) 184 % of control; (dose: 93.0 mg/kg/injection, schedule: Q01DX001 (ip), vehicle: gum acacia) 298 % of control; (dose: 187.0 mg/kg/injection, schedule: Q01DX001 (ip), vehicle: gum acacia) 315 % of control; (dose: 250.0 mg/kg/injection, schedule: Q01DX001 (ip), vehicle: gum acacia) 318 % of control. For the same compound, the T/C (dose: 375.0 mg/kg/injection, schedule: Q01DX001 (ip), vehicle: gum acacia) was 245 % of control.

With `CN1CCCC2C3=CC=C4CC(O)CCC4(C)C3CCC21C` (stereo unspecified), the T/C is 98 % of control under setting [6] and 101 % of control under setting [7].

Consider `COc1cccc(/C(C)=N\NC(=O)c2ccccc2)c1`, for which the T/C by setting is: (dose: 25.0 mg/kg/injection, schedule: Q04DX003 (ip), vehicle: saline with Tween-80) 88 % of control; (dose: 50.0 mg/kg/injection, schedule: Q04DX003 (ip), vehicle: saline with Tween-80) 90 % of control; under setting [13], 92 % of control.

On to `O=C(O)COc1ccc(F)c(F)c1`, for which the T/C (dose: 100.0 mg/kg/injection, schedule: Q04DX002 (ip), vehicle: Klucel (hydroxypropylcellulose) (HPC)) is 90 % of control; the T/C under setting [8] is 104 % of control; the T/C under setting [9] is 93 % of control.

Regarding `CC(C)(C)S/C=C/C(N)=O`, the T/C reads like this: (dose: 50.0 mg/kg/injection, schedule: Q01DX009 (ip), vehicle: saline) 98 % of control; under setting [1], 91 % of control; (dose: 100.0 mg/kg/injection, schedule: Q01DX009 (ip), vehicle: saline) 96 % of control; under setting [2], 93 % of control; (dose: 200.0 mg/kg/injection, schedule: Q01DX009 (ip), vehicle: saline) 94 % of control.

On to `COc1ccc(OCCOC(=O)Nc2ccccc2C(F)(F)F)cc1`, for which the T/C was 105 % of control under setting [14]; 90 % of control under setting [15]; 90 % of control (dose: 400.0 mg/kg/injection, schedule: Q04DX003 (ip), vehicle: Klucel (hydroxypropylcellulose) (HPC)).

Consider `COC(=O)C(CSCc1ccccc1)NC(=O)OCc1ccccc1` (stereo unspecified), for which the T/C under setting [11] is 96 % of control; the T/C under setting [14] is 90 % of control; the T/C under setting [12] was 94 % of control; the T/C under setting [15] was 87 % of control; the T/C (dose: 400.0 mg/kg/injection, schedule: Q01DX009 (ip), vehicle: Klucel (hydroxypropylcellulose) (HPC)) was 94 % of control.

Take `CCOC(=O)C(Cc1c(C)c(OC)c(CC(C(=O)OCC)C(=O)OCC)c(C)c1OC)C(=O)OCC`: the T/C runs as follows: under setting [4], 101 % of control; under setting [13], 93 % of control; under setting [5], 97 % of control; (dose: 200.0 mg/kg/injection, schedule: Q04DX003 (ip), vehicle: saline with Tween-80) 88 % of control; (dose: 400.0 mg/kg/injection, schedule: Q01DX009 (ip), vehicle: saline with Tween-80) 92 % of control; (dose: 400.0 mg/kg/injection, schedule: Q04DX003 (ip), vehicle: saline with Tween-80) 90 % of control.

Turning to `NC(=Nc1ccccc1)Nc1ccccc1`, the T/C is 101 % of control (dose: 6.25 mg/kg/injection, schedule: Q01DX009 (ip), vehicle: Klucel (hydroxypropylcellulose) (HPC)); 101 % of control (dose: 12.5 mg/kg/injection, schedule: Q01DX009 (ip), vehicle: Klucel (hydroxypropylcellulose) (HPC)); 97 % of control (dose: 12.5 mg/kg/injection, schedule: Q01DX009 (ip), vehicle: saline with Tween-80); 89 % of control under setting [16]; 102 % of control (dose: 25.0 mg/kg/injection, schedule: Q01DX009 (ip), vehicle: saline with Tween-80); 101 % of control (dose: 35.0 mg/kg/injection, schedule: Q01DX009 (ip), vehicle: saline). Further, the T/C (dose: 50.0 mg/kg/injection, schedule: Q01DX009 (ip), vehicle: saline with Tween-80) was 97 % of control.

Regarding `Cc1ccc(C(C)C)cc1NC(=O)NCCCl`, the T/C is, setting by setting: (dose: 20.0 mg/kg/injection, schedule: Q04DX003 (ip), vehicle: Klucel (hydroxypropylcellulose) (HPC)) 94 % of control; (dose: 40.0 mg/kg/injection, schedule: Q04DX003 (ip), vehicle: Klucel (hydroxypropylcellulose) (HPC)) 97 % of control; (dose: 80.0 mg/kg/injection, schedule: Q04DX003 (ip), vehicle: Klucel (hydroxypropylcellulose) (HPC)) 102 % of control; under setting [14], 112 % of control; under setting [15], 112 % of control.

`CC(=O)O/N=C\C(C)=N\OC(C)=O`: the T/C by setting is: (dose: 15.0 mg/kg/injection, schedule: Q01DX Z (ip), vehicle: saline) 109 % of control; (dose: 30.0 mg/kg/injection, schedule: Q01DX Z (ip), vehicle: saline) 109 % of control; (dose: 60.0 mg/kg/injection, schedule: Q01DX Z (ip), vehicle: saline) 107 % of control; (dose: 120.0 mg/kg/injection, schedule: Q01DX Z (ip), vehicle: saline) 107 % of control.

In the case of `CCNCCNc1ccc(CO)c2sc3cc(Cl)ccc3c(=O)c12`, the T/C is 99 % of control under setting [16] and 100 % of control under setting [10].

In the case of `CSc1ccc(OC(C)=O)cc1C`, the T/C is, setting by setting: under setting [1], 106 % of control; under setting [2], 98 % of control; under setting [3], 96 % of control.

As to `CC(N)c1cccc2ccccc12` (stereo unspecified), the T/C reads like this: (dose: 25.0 mg/kg/injection, schedule: Q04DX002 (ip), vehicle: saline) 98 % of control; (dose: 50.0 mg/kg/injection, schedule: Q04DX002 (ip), vehicle: saline) 94 % of control; (dose: 100.0 mg/kg/injection, schedule: Q04DX002 (ip), vehicle: saline) 98 % of control.

As for `CN(C(=O)N(CCCl)N=O)c1ccccc1`, the T/C was 104 % of control (dose: 100.0 mg/kg/injection, schedule: Q01DX001 (ip), vehicle: carboxymethylcellulose (CMC)); 104 % of control (dose: 200.0 mg/kg/injection, schedule: Q01DX001 (ip), vehicle: carboxymethylcellulose (CMC)); 105 % of control (dose: 400.0 mg/kg/injection, schedule: Q01DX001 (ip), vehicle: carboxymethylcellulose (CMC)).
